Source: ChEMBL document CHEMBL4613209, “Quinolone hybrids and their anti-cancer activities: An overview” (Eur J Med Chem, 2019)
In brackets after ≈: the same amount, converted by molar mass.

How the values were obtained:
HL-60 [1] = assay: Antiproliferative activity against human HL60 cells after 24 to 72 hrs by MTT assay; assay type: functional, cell-based
Apoptosis regulator BAX = Apoptosis regulator BAX (Homo sapiens, UniProt Q07812); assay: Activation of Bax in human SMMC7721 cells; assay type: cell-based, SMMC-7721
[2] = target: Cellular tumor antigen p53 (Homo sapiens, UniProt P04637); assay: Activation of p53 in human SMMC7721 cells; assay type: cell-based, SMMC-7721
Caspase-3 = Caspase-3 (Homo sapiens, UniProt P42574); assay: Activation of caspase 3 in human SMMC7721 cells; assay type: cell-based, SMMC-7721
Hep 3B2 = assay: Antiproliferative activity against human Hep3B cells after 24 to 72 hrs by MTT assay; assay type: functional, cell-based
Caspase-9 = Caspase-9 (Homo sapiens, UniProt P55211); assay: Activation of caspase 9 in human SMMC7721 cells; assay type: cell-based, SMMC-7721
L1210 [3] = assay: Antiproliferative activity against mouse L1210 cells after 24 to 72 hrs by MTT assay; assay type: functional, cell-based
SMMC-7721 [4] = assay: Antiproliferative activity against human SMMC7721 cells after 24 to 72 hrs by MTT assay; assay type: functional, cell-based
SiHa = assay: Growth inhibition of human SiHa cells after 48 hrs by SRB assay; assay type: functional
PANC-1 [5] = assay: Growth inhibition of human PANC1 cells after 48 hrs by SRB assay; assay type: functional; conditions: PANC-1, 48 h
MDA-MB-231 = assay: Growth inhibition of human MDA-MB-231 cells after 48 hrs by SRB assay; assay type: functional; conditions: MDA-MB-231, 48 h
A549 [6] = assay: Antiproliferative activity against human A549 cells after 48 hrs by MTT assay; assay type: functional, cell-based; conditions: A549, 48 h
PANC-1 [7] = assay: Antiproliferative activity against human PANC1 cells after 48 hrs by MTT assay; assay type: functional, cell-based; conditions: PANC-1, 48 h
HCT-116 = assay: Antiproliferative activity against human HCT116 cells after 48 hrs by MTT assay; assay type: functional, cell-based; conditions: HCT-116, 48 h
HeLa [8] = assay: Antiproliferative activity against human HeLa cells after 48 hrs by MTT assay; assay type: functional, cell-based
HUVEC = assay: Cytotoxicity against human HUVEC cells assessed as reduction in cell viability by MTT assay; assay type: cell-based
MCF7 [9] = assay: Cytotoxicity against human MCF7 cells assessed as reduction in cell viability by MTT assay; assay type: functional, cell-based
NCI/ADR-RES = assay: Cytotoxicity against human MCF7/ADR cells assessed as reduction in cell viability by MTT assay; assay type: functional, cell-based
SMMC-7721 [10] = assay: Cytotoxicity against human SMMC7721 cells assessed as reduction in cell viability by MTT assay; assay type: functional, cell-based
SW1990 = assay: Cytotoxicity against human SW1990 cells assessed as reduction in cell viability by MTT assay; assay type: functional, cell-based
K562 = assay: Anticancer activity against human K562 cells; assay type: functional, cell-based
HCT-8 [11] = assay: Antiproliferative activity against human HCT8 cells after 48 hrs by MTT assay; assay type: functional, cell-based; conditions: HCT-8, 48 h
HT-29 [12] = assay: Anticancer activity against human HT-29 cells by MTT assay; assay type: functional, cell-based
HepG2 = assay: Anticancer activity against human HepG2 cells by MTT assay; assay type: functional, cell-based
HL-60 [13] = assay: Anticancer activity against human HL60 cells by MTT assay; assay type: functional, cell-based
HeLa [14] = assay: Anticancer activity against human HeLa cells by MTT assay; assay type: functional, cell-based
A549 [15] = assay: Anticancer activity against human A549 cells by MTT assay; assay type: functional, cell-based
B16-F10 [16] = assay: Anticancer activity against mouse B16F10 cells; assay type: functional, cell-based
A549 [17] = assay: Cytotoxicity against human A549 cells assessed as reduction in cell viability; assay type: functional, cell-based
[18] = Toxicity in mouse xenografted with human MB-9812 cells
B16-F10 [19] = assay: Cytotoxicity against mouse B16F10 cells assessed as reduction in cell viability; assay type: functional, cell-based
HCT-8 [20] = assay: Anticancer activity against human HCT8 cells; assay type: functional, cell-based
P388 [21] = assay: Cytotoxicity against doxorubicin resistant mouse P388 cells assessed as reduction in cell viability; assay type: functional, cell-based
[22] = system: Lewis lung carcinoma cell line; assay: Anticancer activity against mouse LLC cells; assay type: functional, cell-based
MCF7 [23] = assay: Anticancer activity against human MCF7 cells; assay type: functional, cell-based
[24] = Toxicity in mouse xenografted with human CX-1 cells; conditions: in vivo
P388 [25] = assay: Anticancer activity against mouse P388 cells; assay type: functional, cell-based
P388 [26] = assay: Cytotoxicity against mouse P388 cells assessed as reduction in cell viability; assay type: functional, cell-based
A549 [27] = assay: Anticancer activity against human A549 cells; assay type: functional, cell-based
HT-29 [28] = assay: Anticancer activity against human HT-29 cells; assay type: functional, cell-based
P388 [29] = assay: Anticancer activity against doxorubicin resistant mouse P388 cells; assay type: functional, cell-based
HT-29 [30] = assay: Cytotoxicity against human HT-29 cells assessed as reduction in cell viability; assay type: functional, cell-based
MCF7 [31] = assay: Potency index, ratio of TD50 for doxorubicin to TD50 for test compound for cytotoxicity against human MCF7 cells assessed as reduction in cell viability; assay type: functional
CCRF S-180 = assay: Antitumor activity against mouse S180 cells xenografted in mouse assessed as reduction in tumor weight at 10 mg/kg relative to control; assay type: functional; parameters: scale not given: the % may be the effect or the level left
MRC5 = assay: Cytotoxicity against human MRC5 cells assessed as reduction in cell viability; assay type: functional; conditions: read-out: TD50 (the source's name)
[32] = Cytotoxicity against human WI38 cells assessed as reduction in cell viability; assay type: cell-based; conditions: WI-38 cells, read-out: TD50 (the source's name)
KB = assay: Potency index, ratio of TD50 for doxorubicin to TD50 for test compound for cytotoxicity against human KB cells assessed as reduction in cell viability; assay type: functional
[33] = Potency index, ratio of TD50 for doxorubicin to TD50 for test compound for cytotoxicity against human SW403 cells assessed as reduction in cell viability; assay type: functional
OVCAR-3 = assay: Potency index, ratio of TD50 for doxorubicin to TD50 for test compound for cytotoxicity against human OVCAR3 cells assessed as reduction in cell viability; assay type: functional
L1210 [34] = assay: Potency index, ratio of TD50 for doxorubicin to TD50 for test compound for cytotoxicity against mouse L1210 cells assessed as reduction in cell viability; assay type: functional

Chain of Apoptosis regulator BAX (Q07812 whole entry): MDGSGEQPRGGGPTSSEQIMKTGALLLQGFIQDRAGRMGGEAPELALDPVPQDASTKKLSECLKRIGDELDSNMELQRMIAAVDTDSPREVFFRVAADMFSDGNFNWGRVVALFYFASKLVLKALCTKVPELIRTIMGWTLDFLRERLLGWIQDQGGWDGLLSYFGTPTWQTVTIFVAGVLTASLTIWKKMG
Chain of Cellular tumor antigen p53 (P04637 whole entry): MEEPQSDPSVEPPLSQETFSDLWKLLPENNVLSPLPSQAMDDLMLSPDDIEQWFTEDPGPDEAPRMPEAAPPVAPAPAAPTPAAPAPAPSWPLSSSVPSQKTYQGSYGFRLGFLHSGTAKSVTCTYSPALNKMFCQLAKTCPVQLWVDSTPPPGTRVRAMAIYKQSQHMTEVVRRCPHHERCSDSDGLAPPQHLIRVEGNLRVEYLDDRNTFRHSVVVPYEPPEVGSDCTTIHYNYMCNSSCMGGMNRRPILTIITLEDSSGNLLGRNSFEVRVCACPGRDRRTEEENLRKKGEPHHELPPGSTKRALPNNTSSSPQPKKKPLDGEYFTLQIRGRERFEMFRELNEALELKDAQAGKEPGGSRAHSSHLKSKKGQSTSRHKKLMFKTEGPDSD
Chain of Caspase-3 (P42574 29-175 limits assumed): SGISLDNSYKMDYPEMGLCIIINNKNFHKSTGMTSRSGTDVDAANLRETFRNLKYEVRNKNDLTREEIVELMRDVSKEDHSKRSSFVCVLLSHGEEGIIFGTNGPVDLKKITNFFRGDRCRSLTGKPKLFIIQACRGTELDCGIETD
Chain of Caspase-3 (P42574 176-277 limits assumed): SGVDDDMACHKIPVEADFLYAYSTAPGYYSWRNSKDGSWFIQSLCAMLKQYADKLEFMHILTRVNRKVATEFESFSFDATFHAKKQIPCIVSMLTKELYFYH
Chain of Caspase-9 (P55211 1-315 limits assumed): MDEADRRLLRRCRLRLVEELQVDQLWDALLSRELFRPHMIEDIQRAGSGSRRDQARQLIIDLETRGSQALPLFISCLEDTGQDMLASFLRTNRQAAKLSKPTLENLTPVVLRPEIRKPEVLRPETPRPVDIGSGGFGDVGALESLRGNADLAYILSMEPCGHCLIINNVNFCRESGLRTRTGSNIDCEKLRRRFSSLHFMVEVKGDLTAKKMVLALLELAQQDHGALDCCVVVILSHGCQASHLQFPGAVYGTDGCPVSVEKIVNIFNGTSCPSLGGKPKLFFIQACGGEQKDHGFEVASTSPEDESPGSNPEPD
Chain of Caspase-9 (P55211 331-416 limits assumed): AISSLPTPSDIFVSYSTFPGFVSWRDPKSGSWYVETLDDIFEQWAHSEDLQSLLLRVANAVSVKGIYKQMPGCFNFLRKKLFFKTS

Compound: O=C(N/N=C/c1ccc2c(c1)OCO2)c1cn(C2CC2)c2cc(N3CCNCC3)c(F)cc2c1=O
- IC50 (HL-60 [1]): 1.4 to 52.3 µM
- IC50 (Apoptosis regulator BAX): 3 to 7.39 µM
- IC50 [2]: 3 to 7.39 µM
- IC50 (Caspase-3): 3 to 7.39 µM
- IC50 (Hep 3B2): 1.4 to 52.3 µM
- IC50 (Caspase-9): 3 to 7.39 µM
- IC50 (L1210 [3]): 1.4 to 52.3 µM
- IC50 (SMMC-7721 [4]): 1.4 to 52.3 µM

Compound: CCn1cc(C(=O)O)c(=O)c2cnc(N3CCN(C(=O)CCSc4nnnn4-c4ccc(Br)cc4)CC3)nc21
- GI50 (SiHa): 0.08 µM
- GI50 (PANC-1 [5]): 0.07 µM
- GI50 (MDA-MB-231): 0.22 µM

Compound: CCN(CC)Cc1cn(-c2cc3c(cc2F)c(=O)c(C(=O)NO)cn3C2CC2)nn1
- IC50 (A549 [6]): > 10 µM
- IC50 (PANC-1 [7]): > 10 µM
- IC50 (HCT-116): > 10 µM
- IC50 (HeLa [8]): > 10 µM

Compound: CC(C)NCc1cn(-c2cc3c(cc2F)c(=O)c(C(=O)NO)cn3C2CC2)nn1
- IC50 (A549 [6]): > 10 µM
- IC50 (PANC-1 [7]): > 10 µM
- IC50 (HCT-116): > 10 µM
- IC50 (HeLa [8]): > 10 µM

Compound: COc1ccc2cc3[n+](cc2c1OCc1cn(Cc2cc(=O)[nH]c4ccccc24)nn1)-c1cc2c(cc1CC3)OCO2
- IC50 (HUVEC): 75.5 to 181 µM
- IC50 (MCF7 [9]): 75.5 to 181 µM
- IC50 (NCI/ADR-RES): 75.5 to 181 µM
- IC50 (SMMC-7721 [10]): 75.5 to 181 µM
- IC50 (SW1990): 75.5 to 181 µM

Compound: NC(=O)c1cn([C@@H]2O[C@H](CO)[C@@H](O)[C@H]2O)c2ccc(Nc3ccccc3)cc2c1=O
- IC50 (K562): 64.1 µM

Compound: CN(C)Cc1cn(-c2cc3c(cc2F)c(=O)c(C(=O)NO)cn3C2CC2)nn1
- IC50 (A549 [6]): > 10 µM
- IC50 (PANC-1 [7]): > 10 µM
- IC50 (HCT-116): > 10 µM
- IC50 (HeLa [8]): > 10 µM

Compound: COc1ccc(C2CC(c3c(-c4ccccc4)c4ccccc4[nH]c3=O)=NN2c2ccccc2)cc1 (centres undefined)
- IC50 (HCT-116): 2.2 µM
- IC50 (HCT-8 [11]): 5.6 µM
- IC50 (HeLa [8]): 2.4 µM

Compound: CCOC(=O)c1cn(Cc2cn(-c3ccc(Cl)cc3)nn2)c2ccc(F)cc2c1=O
- IC50 (HT-29 [12]): 13.1 to 70.2 µM
- IC50 (HepG2): 13.1 to 70.2 µM
- IC50 (HL-60 [13]): 13.1 to 70.2 µM
- IC50 (HeLa [14]): 13.1 to 70.2 µM
- IC50 (A549 [15]): 13.1 to 70.2 µM

Compound: CCn1cc(C(=O)O)c(=O)c2cnc(N3CCN(C(=O)CCSc4nnnn4-c4cc(OC)c(OC)c(OC)c4)CC3)nc21
- GI50 (SiHa): 0.06 to 2 µM
- GI50 (PANC-1 [5]): 0.06 to 2 µM
- GI50 (MDA-MB-231): 0.06 to 2 µM

Compound: O=C(O)c1cn([C@@H]2O[C@H](CO)[C@@H](O)[C@H]2O)c2ccc(Oc3ccccc3)cc2c1=O
- IC50 (K562): 64.1 to 198 µM

Compound: CCC[C@H](N)C(=O)NC1CCN(C2C(F)=Cc3c4n(cc(C(=O)O)c3=O)-c3ccccc3OC42)C1 (some centres undefined)
- IC50 (B16-F10 [16]): 0.03 to 0.49 µM
- IC50 (A549 [17]): 0.01 to 1 µg/mL (≈ 0.0207 to 2.07 µM)
- LD50 [18]: 59.6 mg/kg
- IC50 (B16-F10 [19]): 0.01 to 1 µg/mL (≈ 0.0207 to 2.07 µM)
- IC50 (HCT-8 [20]): 0.03 to 0.49 µM
- IC50 (P388 [21]): 0.01 to 1 µg/mL (≈ 0.0207 to 2.07 µM)
- IC50 [22]: 0.03 to 0.49 µM
- IC50 (MCF7 [23]): 0.03 to 0.49 µM
- LD50 [24]: 59.6 mg/kg
- IC50 (P388 [25]): 0.03 to 0.49 µM
- IC50 (P388 [26]): 0.01 to 1 µg/mL (≈ 0.0207 to 2.07 µM)
- IC50 (A549 [27]): 0.03 to 0.49 µM
- IC50 (HT-29 [28]): 0.03 to 0.49 µM
- IC50 (P388 [29]): 0.03 to 0.49 µM
- IC50 (HT-29 [30]): 0.01 to 1 µg/mL (≈ 0.0207 to 2.07 µM)

Compound: CCOC(=O)c1cn([C@@H]2O[C@H](CO)[C@@H](O)[C@H]2O)c2ccc(Nc3ccccc3)cc2c1=O
- IC50 (K562): 64.1 to 198 µM

Compound: Cc1cn(-c2ccc(CCCCCCCCCCn3ccc(=O)c4c(N)cccc43)cc2)nn1
- Ratio (MCF7 [31]): >=4.6
- Activity (CCRF S-180): 13.1%
- CC50 (MRC5): 0.033 µg/mL (≈ 0.0721 µM)
- CC50 [32]: 7.45 µg/mL (≈ 16.3 µM)
- Ratio (KB): >=4.6
- Ratio [33]: >=4.6
- Ratio (OVCAR-3): >=4.6
- Ratio (L1210 [34]): >=4.6

Compound: CCCN(CCC)Cc1cn(-c2cc3c(cc2F)c(=O)c(C(=O)NO)cn3C2CC2)nn1
- IC50 (A549 [6]): > 10 µM
- IC50 (PANC-1 [7]): > 10 µM
- IC50 (HCT-116): > 10 µM
- IC50 (HeLa [8]): > 10 µM
